Assay results taken from BindingDB's records for PubMed 1987453 (Georgetown University, 1991).

biological target: Nicotinic acetylcholine receptor (Rattus leucopus, UniProt Q62594)
Sequence (Q62594 whole entry): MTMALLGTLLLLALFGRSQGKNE

CNC(=O)Oc1ccc2c(c1)[C@]1(C)CCN(C)C1N2C (some centres undefined) and CN1[C@@H]2CC[C@H]1CC(OC(=O)[C@H](CO)c1ccccc1)C2 (some centres undefined) [CAS_51-55-8] cannot be ordered by Ki: > 10 µM for the first, > 10 µM for the second.

Compared with COc1cc2c3cc1Oc1cc(ccc1O)CC1c4c(cc(OC)c(O)c4Oc4ccc(cc4)CC3[N+](C)(C)CC2)CC[N+]1(C)C (centres undefined) [CAS_8063-06-7], C=C(C=O)C[C@H]1C[C@H](O)[C@]2(C)O[C@@H]3C[C@@H]4O[C@@H]5C[C@]6(C)O[C@]7(C)CC[C@@H]8O[C@@H]9C[C@]%10(C)O[C@@H]%11C(C)=CC(=O)O[C@H]%11C[C@H]%10O[C@H]9C[C@@H](C)[C@H]8O[C@H]7C[C@H]6O[C@@]5(C)C/C=C\[C@H]4O[C@H]3C[C@H]2O1 is lower in Ki: > 10 µM for the first, 2 µM for the second. The second binds more tightly here.
